{"source": "paper PMC4230943", "about": "“Mimicking Hypoxia to Treat Anemia: HIF-Stabilizer BAY 85-3934 (Molidustat) Stimulates Erythropoietin Production without Hypertensive Effects” (PLoS ONE, 2014)", "key": {"[1]": {"tested_on": "HIF-1α and HIF-2α", "assay": "Western blot detection of HIF stabilization in HeLa, A549 and Hep3B cells", "assay_type": "cell-based, human", "details": "for induction threshold of detectable HIF: 2 h exposure", "method": "A549 and HeLa carcinoma cell lines (American Type Culture Collection) were cultured in DMEM/F-12 (Gibco), and Hep3B cells in RPMI medium, both supplemented with antibiotics, L-glutamine and 10% fetal calf serum. A549 cells stably transfected with the HIF-RE2-luc HIF reporter construct (constructed in pGL3, Promega GmbH) were seeded on 384-well plates (Greiner) at a density of 2500 cells/well in a volume of 25 µl complete cell culture medium, and re-incubated for 16–24 h before the test. Test compounds were added at appropriate dilutions in a volume of 10 µl, and cells were re-incubated for 6 h before measurement. Luciferase activity was determined in a luminometer after addition of cell lysis/luciferase buffer. Cell line identities were verified by STR DNA typing (DSMZ GmbH).\nFor western blot analysis, cell lysates were separated on 4–12% SDS polyacrylamide gradient gels (Invitrogen). Proteins were blotted onto polyvinylidene difluoride (PVDF) membranes (Amersham Biosciences). HIF-1α protein was detected using a HIF-1α specific monoclonal antibody (BD Transduction Laboratories) at a dilution of 1∶250. HIF-2α protein was detected using a HIF-2α specific polyclonal antibody (Novus Biologicals) at a dilution of 1∶1000. Anti-β-actin antibody served as a loading control. […] Novex Sharp Pre-stained Protein Standard (Invitrogen) was used as molecular weight marker.\nIt was further explored whether inhibition of HIF-PHs would result in the stabilization of HIFs. Exposure of three different human cell lines (HeLa, A549, and Hep3B) to concentrations of BAY 85-3934 up to 10 µM for 2 h led to dose-dependent increases in both HIF-1α and HIF-2α. Within the individual cell lines, there was no difference between the HIF isoforms with regard to the threshold concentration of BAY 85-3934 that was necessary for the induction of detectable amounts of HIF. […] Exposure of HeLa cells to 5 µM BAY 85-3934 for 20 min was sufficient to induce detectable concentrations of HIF-1α (Fig. 1E). After exposure of A549 cells to 20 µM BAY 85-3934 for 120 min, with subsequent withdrawal of the culture medium and replacement with medium containing 100 µM cycloheximide (an inhibitor of protein synthesis), induction of HIF-1α was no longer detectable after 30 min (Fig. 1F). Therefore, it can be ruled out that disappearance of HIF-1α was the result of de novo synthesis of […]."}, "[2]": {"tested_on": "male Wistar rats", "assay": "Comparison of oral BAY 85-3934 with rhEPO on erythropoiesis", "assay_type": "in vivo, rat", "experimental": "Male Wistar rats (240–340 g in body weight) were housed with five animals per cage for at least 1 week before experimentation. Blood samples from rats were collected under anesthesia (2% isoflurane in air) by puncturing the retro-orbital vein plexus with a glass capillary. In a repeat-dose, 26-day experiment, animals were administered vehicle or BAY 85-3934 at doses of 0.5 mg/kg, 1.25 mg/kg, 2.5 mg/kg, and 5 mg/kg. PCV was determined at baseline and at weekly intervals after centrifugation in a hematocrit capillary tube (Brand) for 10 min at full speed in a Haemofuge centrifuge (Heraeus). The number of reticulocytes in 5 µl blood was counted after staining with thiazol orange (Becton Dickinson) according to the manufacturer’s instructions by FACS analysis on a BD FACSCalibur system (Becton Dickinson). The efficacy of BAY 85-3934 (2.5 mg/kg, once-daily, oral) was also compared with that of rhEPO (25 IU/kg, 50 IU/kg, and 100 IU/kg, twice-weekly, s.c. injection). […] The efficacy of oral treatment with BAY 85-3934 was compared with that of standard rhEPO treatment in male Wistar rats."}, "[3]": {"tested_on": "male Wistar rats treated with gentamicin", "assay": "Gentamicin-induced kidney failure (renal anemia) model", "assay_type": "in vivo, rat", "method": "Male Wistar rats were treated once daily with gentamicin (Gibco/Invitrogen) at a dose of 100 mg/kg body weight via i.p. injection on 14 consecutive days, [35]. Control animals received injections of an equal volume of 0.9% saline. After gentamicin treatment, PCV was determined and animals were distributed to the vehicle or treatment groups with respect to equal mean PCV. On day 15, BAY 85-3934 was given orally once daily at doses of 1 mg/kg, 2.5 mg/kg, 5.0 mg/kg, and 10.0 mg/kg, five times weekly.\nEPO was measured in plasma samples taken from rodents using a commercial ELISA kit (R&D Systems), according to the manufacturer’s instructions. Relative plasma EPO levels were given in picograms per milliliter. In cynomolgus monkeys, EPO was measured using a combination anti-human EPO ELISAs (R&D Systems and Roche Diagnostics), with human EPO as a standard. Values were given as units per liter. For determination of plasma prorenin from rats, a commercial ELISA (Oxford Biomedical Research) was used according to the manufacturer’s instructions. Hemoglobin in rodent blood samples was determined on a Cell-Dyn 3700 apparatus (Abbott Diagnostics). BAY 85-3934 plasma concentrations were determined after protein precipitation with acetonitrile/ammonium acetate using an internal standard, followed by separation using HPLC/mass spectrometry.\nTotal RNA was extracted from shock-frozen cell or tissue samples using the TRIzol method. Integrity of obtained RNA was checked on a Bioanalyzer (Agilent Technologies). For reverse transcription, 1 µg of total RNA was digested with RNase-free DNase I (Gibco) for 15 min at room temperature, and then reverse-transcribed using Promiscript (Promega GmbH) in a total reaction volume of 40 µl according to the standard protocol of the supplier. After inactivation of the enzyme by heating to 65°C for 15 min, the obtained cDNA was diluted to a final volume of 150 µl with double-distilled water, and 4 µl used per PCR reaction. qRT-PCR, including normalization of raw data to cytosolic β-actin, was carried out as described previously. The resulting expression is given in arbitrary units.\nThe effect of BAY 85-3934 on the induction of endogenous EPO production was evaluated in an animal model of impaired kidney function, the gentamicin-induced kidney failure model. A mean creatinine clearance of 30% of that of untreated animals and high expression levels of several markers of acute and chronic kidney injury were indicative of substantial renal impairment in these animals. […] The mean absolute levels of induction were lower in the gentamicin-treated animals than in the controls."}}, "data": [{"compound": "O=c1c(-n2ccnn2)c[nH]n1-c1cc(N2CCOCC2)ncn1", "note": "[BAY 85-3934, 2-[6-(morpholin-4-yl)pyrimidin-4-yl]-4-(1H-1,2,3-triazol-1-yl)-1,2-dihydro-3H-pyrazol-3-one]", "values": [{"measurement": "induction threshold of detectable HIF", "setting": "[1]; A549 cells", "value": 2.5, "unit": "µM"}, {"measurement": "induction threshold of detectable HIF", "setting": "[1]; HeLa cells", "value": 0.25, "unit": "µM"}, {"measurement": "induction threshold of detectable HIF", "setting": "[1]; Hep3B cells", "value": 0.5, "unit": "µM"}, {"measurement": "induction threshold of HIF (summary in discussion)", "setting": "[1]; human cell lines", "value": "below 1 µM"}, {"measurement": "equivalence of dose for gains in hematocrit and hemoglobin", "setting": "[2]; BAY 85-3934 2.5 mg/kg once daily", "value": "equivalent to a twice-weekly dose of rhEPO (100 IU/kg)"}, {"measurement": "hematocrit compared with the control group", "setting": "[2]; BAY 85-3934 2.5 mg/kg once daily oral, rhEPO 25, 50, 100 IU/kg twice weekly s.c., p<0.001 at day 30", "value": "significant increase"}, {"measurement": "time after onset of treatment for mean PCV to return to baseline", "setting": "[3]; 2.5 mg/kg", "value": "≤ 2", "unit": "weeks"}, {"measurement": "mean PCV", "setting": "[3]; 5 mg/kg and 10 mg/kg, 5 days per week, final values higher than control, p<0.001", "value": "prevented the decline in mean PCV"}, {"measurement": "kidney EPO mRNA expression", "setting": "[3]; 4 h after oral administration", "value": "increased dose-dependently"}, {"measurement": "plasma EPO levels", "setting": "[3]; 4 h after oral administration", "value": "significantly and dose-dependently induced"}, {"measurement": "hemoglobin values", "setting": "[3]; 7 days after the start of treatment", "value": "significant dose-dependent increase"}, {"measurement": "reticulocyte counts", "setting": "[3]; all doses, data not shown", "value": "increase in reticulocyte counts"}, {"measurement": "doses giving significant induction of liver EPO mRNA", "setting": "[3]; control group (no gentamicin)", "value": "≥ 2.5", "unit": "mg/kg"}, {"measurement": "doses giving significant induction of liver EPO mRNA", "setting": "[3]; gentamicin-treated animals", "value": "≥ 5", "unit": "mg/kg"}, {"measurement": "expression of other HIF target genes in kidney and liver", "setting": "[3]; oral administration", "value": "no dose-response"}]}]}
